Assay results reported in patent EP4273147A1, “SUBSTITUTED SPIROLACTAMS, SALTS THEREOF AND THEIR USE AS HERBICIDALLY ACTIVE SUBSTANCES” (Bayer Aktiengesellschaft, priority 2022, dated 2023).

Tests used:
[1] = test system: ALOMY; assay: Herbicidal post-emergence action, section E (Table E2); assay type: in vivo, Alopecurus myosuroides; settings: application rate 320 g/ha; assessed visually after ca. 3 weeks
Source text: (§1) 2 to 3 weeks after sowing, the test plants were sprayed in the single-leaf stage.

[2] = test system: KCHSC; assay: Herbicidal pre-emergence action (Table A10); assay type: in vivo, Kochia scoparia; settings: application rate 320 g/ha; visual grading after ca. 3 weeks
How it was run: (§2)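 Seeds covered with soil after sowing in sandy loam; every pot carried one monocotyledonous and one dicotyledonous weed species as a double sowing.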

[3] = test system: BRSNW; assay: Pre-emergence effects on crop plants (Table D5); assay type: in vivo, Brassica napus; settings: crop plant; application rate 80 g/ha; visual grading after ca. 3 weeks
[4] = test system: LOLRI; assay: Herbicidal post-emergence action (Table B5); assay type: in vivo, Lolium rigidum; settings: application rate 1280 g/ha; rated visually after about 3 weeks
How it was run: (§3)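 Each pot held sandy loam sown with a single mono- or dicot weed species, grown under controlled greenhouse conditions. Test plants were sprayed at the one-leaf stage, and after about 3 weeks of further growth the percentage activity relative to untreated plants was rated visually.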

[5] = test system: SETVI; assay: Herbicidal pre-emergence action (Table A5); assay type: in vivo, Setaria viridis; settings: visual grading after ca. 3 weeks
How it was run: as §2

[6] = test system: ECHCG; assay: Herbicidal pre-emergence action (Table A2); assay type: in vivo, Echinochloa crus-galli; settings: application rate 320 g/ha; visual grading after ca. 3 weeks
How it was run: as §2

[7] = test system: MATIN; assay: Herbicidal pre-emergence action (Table A4); assay type: in vivo, Matricaria inodora; settings: visual grading after ca. 3 weeks
How it was run: as §2

[8] = test system: ECHCG; assay: Herbicidal post-emergence action (Table B3); assay type: in vivo, Echinochloa crus-galli; settings: application rate 1280 g/ha; rated visually after about 3 weeks
How it was run: as §3

[9] = test system: ABUTH; assay: Herbicidal pre-emergence action (Table A1); assay type: in vivo, Abutilon theophrasti; settings: application rate 1280 g/ha; visual grading after ca. 3 weeks vs untreated controls (100% = plants have died off, 0% = as control plants)
How it was run: as §2

[10] = test system: LOLRI; assay: Herbicidal pre-emergence action (Table A3); assay type: in vivo, Lolium rigidum; settings: visual grading after ca. 3 weeks
How it was run: as §2

[11] = test system: LOLRI; assay: Herbicidal pre-emergence action, section C (Table C7); assay type: in vivo, Lolium rigidum; settings: visual grading after ca. 3 weeks
[12] = test system: POAAN; assay: Herbicidal pre-emergence action (Table A7); assay type: in vivo, Poa annua; settings: visual grading after ca. 3 weeks
How it was run: as §2

[13] = test system: SETVI; assay: Herbicidal pre-emergence action, section C (Table C10); assay type: in vivo, Setaria viridis; settings: visual grading after ca. 3 weeks
[14] = test system: AMARE; assay: Herbicidal post-emergence action (Table B11); assay type: in vivo, Amaranthus retroflexus; settings: application rate 1280 g/ha
How it was run: as §3

[15] = test system: VERPE; assay: Herbicidal pre-emergence action (Table A11); assay type: in vivo, Veronica persica; settings: application rate 1280 g/ha; visual grading after ca. 3 weeks
How it was run: as §2

[16] = test system: MATIN; assay: Herbicidal post-emergence action (Table B6); assay type: in vivo, Matricaria inodora; settings: rated visually after about 3 weeks
How it was run: as §3

[17] = test system: GLXMA; assay: Pre-emergence effects on crop plants (Table D4); assay type: in vivo, Glycine max; settings: crop plant, visual grading after ca. 3 weeks
[18] = test system: SETVI; assay: Herbicidal post-emergence action, section E (Table E8); assay type: in vivo, Setaria viridis; settings: application rate 320 g/ha; assessed visually after ca. 3 weeks
Source text: as §1

[19] = test system: ECHCG; assay: Herbicidal pre-emergence action, section C (Table C6); assay type: in vivo, Echinochloa crus-galli; settings: application rate 320 g/ha; visual grading after ca. 3 weeks
Source text: (§5) Seeds of mono- and dicotyledonous weed plants and crop plants were sown, in plastic or organic planting pots, in sandy loam and covered with soil. The compounds according to the invention, formulated in the form of wettable powders (WP) or as emulsifiable concentrates (EC), were applied to the surface of the covering soil as aqueous suspension or emulsion, with the addition of 0.5% of an additive, at an application rate of 600 1 of water/ha (converted). Following treatment, the pots were placed in a greenhouse and kept under optimum growth conditions for the test plants.

[20] = test system: ALOMY; assay: Herbicidal pre-emergence action, section C (Table C2); assay type: in vivo, Alopecurus myosuroides; settings: application rate 320 g/ha; visual grading after ca. 3 weeks
[21] = test system: ZEAMX; assay: Post-emergence effects on crop plants (Table F1); assay type: in vivo, Zea mays; settings: application rate 320 g/ha, crop plant ZEAMX
Source text: as §1

[22] = test system: STEME; assay: Herbicidal pre-emergence action (Table A6); assay type: in vivo, Stellaria media; settings: application rate 320 g/ha; visual grading after ca. 3 weeks
How it was run: as §2

[23] = test system: KCHSC; assay: Herbicidal post-emergence action (Table B4); assay type: in vivo, Kochia scoparia; settings: application rate 1280 g/ha; rated visually after about 3 weeks
Experimental: (§4) Seeds of mono- and dicotyledonous weed plants were placed in plastic pots in sandy loam soil (doubly sown with in each case one species of mono- or dicotyledonous weed plants per pot), covered with soil and cultivated in a greenhouse under controlled growth conditions. 2 to 3 weeks after sowing, the test plants were treated at the one-leaf stage. […] After the test plants had been kept in the greenhouse under optimum growth conditions for about 3 weeks, the activity of the preparations was rated visually in comparison to untreated controls. For example, 100% activity = the plants have died, 0% activity = like control plants.

[24] = test system: MATIN; assay: Herbicidal pre-emergence action, section C (Table C8); assay type: in vivo, Matricaria inodora; settings: application rate 320 g/ha; visual grading after ca. 3 weeks
[25] = test system: AMARE; assay: Herbicidal pre-emergence action, section C (Table C3); assay type: in vivo, Amaranthus retroflexus; settings: application rate 320 g/ha; visual grading after ca. 3 weeks
Source text: as §5

[26] = test system: AMARE; assay: Herbicidal pre-emergence action (Table A8); assay type: in vivo, Amaranthus retroflexus; settings: application rate 320 g/ha; visual grading after ca. 3 weeks vs untreated controls (100% = plants have died off, 0% = as control plants)
How it was run: as §2

[27] = test system: ECHCG; assay: Herbicidal post-emergence action, section E (Table E5); assay type: in vivo, Echinochloa crus-galli; settings: application rate 320 g/ha; assessed visually after ca. 3 weeks
Source text: as §1

[28] = test system: ORYZA; assay: Pre-emergence effects on crop plants (Table D3); settings: crop plant; application rate 80 g/ha; visual grading after ca. 3 weeks
Source text: Seeds of mono- and dicotyledonous weed plants and crop plants were sown, in plastic or organic planting pots, in sandy loam and covered with soil. The compounds according to the invention, formulated in the form of wettable powders (WP) or as emulsifiable concentrates (EC), were applied to the surface of the covering soil as aqueous suspension or emulsion, with the addition of 0.5% of an additive, at an application rate of 600 1 of water/ha (converted).
Following treatment, the pots were placed in a greenhouse and kept under optimum growth conditions for the test plants.

[29] = test system: STEME; assay: Herbicidal post-emergence action (Table B9); assay type: in vivo, Stellaria media; settings: application rate 1280 g/ha
Experimental: as §4

[30] = test system: POAAN; assay: Herbicidal post-emergence action (Table B7); assay type: in vivo, Poa annua; settings: application rate 320 g/ha
How it was run: as §3

[31] = test system: ALOMY; assay: Herbicidal pre-emergence action (Table A9); assay type: in vivo, Alopecurus myosuroides; settings: application rate 1280 g/ha; visual grading after ca. 3 weeks
How it was run: as §2

[32] = test system: BRSNW; assay: Post-emergence effects on crop plants (Table F5); assay type: in vivo, Brassica napus; settings: application rate 320 g/ha, crop plant BRSNW
Source text: as §1

[33] = test system: ORYZA; assay: Post-emergence effects on crop plants (Table F3); assay type: in vivo, Oryza sativa; settings: application rate 320 g/ha, crop plant ORYZA
Source text: as §1

[34] = test system: GLXMA; assay: Post-emergence effects on crop plants (Table F4); assay type: in vivo, Glycine max; settings: application rate 320 g/ha, crop plant GLXMA
Source text: as §1

[35] = test system: VIOTR; assay: Herbicidal post-emergence action, section E (Table E10); assay type: in vivo, Viola tricolor; settings: application rate 320 g/ha; assessed visually after ca. 3 weeks
Source text: as §1

[36] = test system: TRZAS; assay: Pre-emergence effects on crop plants (Table D2); assay type: in vivo, Triticum aestivum; settings: crop plant; application rate 80 g/ha; visual grading after ca. 3 weeks
[37] = test system: DIGSA; assay: Herbicidal pre-emergence action (Table A12); assay type: in vivo, Digitaria sanguinalis; settings: application rate 320 g/ha; visual grading after ca. 3 weeks
How it was run: as §2

[38] = test system: ABUTH; assay: Herbicidal post-emergence action, section E (Table E1); assay type: in vivo, Abutilon theophrasti; settings: application rate 320 g/ha; assessed visually after ca. 3 weeks
Source text: as §1

[39] = test system: SETVI; assay: Herbicidal post-emergence action (Table B8); assay type: in vivo, Setaria viridis; settings: application rate 1280 g/ha
How it was run: as §3

[40] = test system: ABUTH; assay: Herbicidal post-emergence action (Table B1); assay type: in vivo, Abutilon theophrasti; settings: application rate 1280 g/ha; treated at one-leaf stage; rated visually after about 3 weeks vs untreated controls (100% = plants have died, 0% = like control plants)
How it was run: as §3

[41] = test system: ZEAMX; assay: Pre-emergence effects on crop plants (Table D1); assay type: in vivo, Zea mays; settings: crop plant; application rate 80 g/ha; visual grading after ca. 3 weeks
[42] = test system: VERPE; assay: Herbicidal post-emergence action, section E (Table E9); assay type: in vivo, Veronica persica; settings: application rate 320 g/ha; assessed visually after ca. 3 weeks
Source text: as §1

[43] = test system: TRZAS; assay: Post-emergence effects on crop plants (Table F2); assay type: in vivo, Triticum aestivum; settings: application rate 320 g/ha, crop plant TRZAS
Source text: as §1

[44] = test system: DIGSA; assay: Herbicidal pre-emergence action, section C (Table C5); assay type: in vivo, Digitaria sanguinalis; settings: application rate 80 g/ha; visual grading after ca. 3 weeks
Source text: as §5

[45] = test system: VIOTR; assay: Herbicidal pre-emergence action, section C (Table C12); assay type: in vivo, Viola tricolor; settings: application rate 80 g/ha; visual grading after ca. 3 weeks
[46] = test system: VERPE; assay: Herbicidal pre-emergence action, section C (Table C11); assay type: in vivo, Veronica persica; settings: application rate 80 g/ha; visual grading after ca. 3 weeks

O=C1N(Cc2cccs2)CCCC12CCCN(Cc1c(F)cccc1F)C2=O (racemic) [I-011]
post-emergence activity against ALOMY [1]: 80% | pre-emergence activity against KCHSC [2]: 90% | pre-emergence activity against BRSNW [3]: 20% | post-emergence activity against LOLRI [4]: 90% | pre-emergence activity against SETVI ([5]; application rate 320 g/ha): 100% | pre-emergence activity against ECHCG [6]: 100% | pre-emergence activity against MATIN ([7]; application rate 320 g/ha): 90% | post-emergence activity against ECHCG [8]: 90% | pre-emergence activity against ABUTH [9]: 90% | pre-emergence activity against LOLRI ([10]; application rate 1280 g/ha): 100% | pre-emergence activity against LOLRI ([11]; application rate 80 g/ha): 80% | pre-emergence activity against POAAN ([12]; application rate 1280 g/ha): 100% | pre-emergence activity against SETVI ([13]; application rate 80 g/ha): 100% | post-emergence activity against AMARE [14]: 90% | pre-emergence activity against VERPE [15]: 90% | post-emergence activity against MATIN ([16]; application rate 320 g/ha): 90% | pre-emergence activity against GLXMA ([17]; application rate 80 g/ha): 20% | post-emergence activity against SETVI [18]: 80% | pre-emergence activity against ECHCG [19]: 90% | pre-emergence activity against ALOMY [20]: 90% | post-emergence activity against ZEAMX [21]: 10% | pre-emergence activity against STEME [22]: 90% | post-emergence activity against KCHSC [23]: 90% | pre-emergence activity against MATIN [24]: 80% | pre-emergence activity against AMARE [25]: 90% | pre-emergence activity against AMARE [26]: 90% | post-emergence activity against ECHCG [27]: 80% | pre-emergence activity against ORYZA [28]: 10% | post-emergence activity against STEME [29]: 90% | post-emergence activity against POAAN [30]: 100% | pre-emergence activity against ALOMY [31]: 90% | post-emergence activity against BRSNW [32]: 0% | post-emergence activity against ORYZA [33]: 20% | post-emergence activity against GLXMA [34]: 20%

O=C1N(Cc2c(F)cccc2F)CCCC12CCN(Cc1c(F)cccc1F)C2=O (racemic) [I-037]
pre-emergence activity against KCHSC [2]: 90% | post-emergence activity against LOLRI [4]: 90% | pre-emergence activity against SETVI ([5]; application rate 1280 g/ha): 100% | post-emergence activity against VIOTR [35]: 80% | pre-emergence activity against ECHCG [6]: 100% | pre-emergence activity against MATIN ([7]; application rate 1280 g/ha): 90% | post-emergence activity against ECHCG [8]: 90% | pre-emergence activity against TRZAS [36]: 0% | pre-emergence activity against ABUTH [9]: 100% | pre-emergence activity against LOLRI ([10]; application rate 320 g/ha): 100% | pre-emergence activity against LOLRI ([11]; application rate 320 g/ha): 100% | pre-emergence activity against DIGSA [37]: 100% | pre-emergence activity against POAAN ([12]; application rate 320 g/ha): 100% | pre-emergence activity against SETVI ([13]; application rate 320 g/ha): 100% | pre-emergence activity against VERPE [15]: 90% | post-emergence activity against MATIN ([16]; application rate 1280 g/ha): 90% | pre-emergence activity against GLXMA ([17]; application rate 320 g/ha): 20% | pre-emergence activity against ALOMY [20]: 100% | post-emergence activity against ZEAMX [21]: 0% | pre-emergence activity against STEME [22]: 90% | post-emergence activity against ABUTH [38]: 80% | pre-emergence activity against MATIN [24]: 80% | post-emergence activity against SETVI [39]: 90% | post-emergence activity against ABUTH [40]: 90% | pre-emergence activity against ZEAMX [41]: 0% | pre-emergence activity against ORYZA [28]: 0% | post-emergence activity against VERPE [42]: 80% | post-emergence activity against TRZAS [43]: 0% | pre-emergence activity against ALOMY [31]: 90% | pre-emergence activity against DIGSA [44]: 100% | pre-emergence activity against VIOTR [45]: 90% | post-emergence activity against ORYZA [33]: 0% | pre-emergence activity against VERPE [46]: 90% | post-emergence activity against GLXMA [34]: 0%
